The target in experiment [1] is T1, RAD52 (Homo sapiens, UniProt P43351).
T1 construct: made in house
T1 sequence (P43351 1-418): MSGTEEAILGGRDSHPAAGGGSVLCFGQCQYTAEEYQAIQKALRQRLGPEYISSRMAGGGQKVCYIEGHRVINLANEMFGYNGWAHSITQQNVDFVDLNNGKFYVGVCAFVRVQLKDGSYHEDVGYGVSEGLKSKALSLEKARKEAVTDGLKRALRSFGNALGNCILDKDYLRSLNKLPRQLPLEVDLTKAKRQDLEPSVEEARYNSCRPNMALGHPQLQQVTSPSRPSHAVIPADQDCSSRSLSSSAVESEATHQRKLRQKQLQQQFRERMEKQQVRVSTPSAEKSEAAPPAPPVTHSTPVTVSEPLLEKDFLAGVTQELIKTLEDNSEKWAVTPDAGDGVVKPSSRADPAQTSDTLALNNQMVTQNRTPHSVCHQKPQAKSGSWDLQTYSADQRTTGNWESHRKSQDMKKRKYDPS
In words: Fluorescence-quenching assay for RAD52 ssDNA annealing (HTS). The format is biochemical.
Procedure: Tailed dsDNA substrate was prepared by thermal annealing of ssDNA oligonucleotides 337-F and 1337-BHQ1 (SEQ ID NO: 2) containing Fluorescein and Black Hole Quencher 1 residues at the 5′ and 3′ end, respectively. […] The fluorescence intensity was measured in a 3-mm quartz cuvette (Starna Cells) using a FluoroMax-3 (HORIBA) fluorimeter with 492 nm excitation wavelength and 520 nm emission wavelength at 30° C. for at least 2000 s.
The HTS was performed using the 8 channel BioRAPTR 1536 (Beckman) for reagent dispensing. […] Wells containing no RAD52 enzyme were used to as positive control, and data were analyzed using Genedata.
A fluorescence-quenching assay was used to screen for inhibitors of RAD52 ssDNA annealing activity (FIGS. 1A-1E). […] Annealing promoted by RAD52 between ssDNA and tdsDNA led to displacement of the FLU-carrying DNA strand from the tdsDNA and in an increase in fluorescence due to secession of fluorescence quenching by the BHQ1 group (FIG. 1B).
The fluorescence-quenching assay was optimized for 1,536 well plates (Z′ Avg=0,64). […] The hits were further analyzed for a concentration dependence in inhibiting of RAD52 and by testing their DNA binding affinity using the acridine orange assay.

For experiment [2], the target named is T1, RAD52. In words: D-loop formation (DNA pairing) by RAD52. The format is biochemical. The following applies: three independent repeats, read-out: Inhibition of DNA pairing (D-loop formation), IC50. On the procedure:
Cisplatin was purchased from Sigma-Aldrich. Human RAD52 and RAD51 were purified as described (Bugreev et al., 2005, Mol. Cell. Biol. 33, 387-395). The oligonucleotides (Table 2) were purchased from IDT, Inc and further purified by electrophoresis (Rossi et al., 2010, Methods 51, 336-346). Supercoiled pUC19 plasmid DNA was purified using Qiagen kits. All DNA concentrations are expressed as moles of nucleotide.
To form RAD52 nucleoprotein complexes, RAD52 (0.45 μM) was incubated with a ^32P-labeled ssDNA (oligo 90/SEQ ID NO: 4) (3 μM, nt) in buffer containing 25 mM Tris-Acetate, pH 7.5, 100 μg·ml-1 BSA, 0.3 mM magnesium acetate, and 2 mM DTT at 37° C. for 15 min. To form RAD51 nucleoprotein filament, RAD51 (1 μM) was incubated with ^32P-labeled ssDNA (3 μM, nt) in buffer containing 25 mM Tris-Acetate, pH 7.5, 100 μg·ml-1 BSA, 1 mM calcium chloride, 1 mM ATP and 2 mM DTT for 15 min at 37° C. Then inhibitors were added to both reactions and incubation continued for 15 min at 37° C. D-Loop formation was initiated by addition of supercoiled pUC19 DNA (50 μM, nucleotides) and was carried out 15 min at 37° C. The reactions were stopped and deproteinized by the addition of 1.5% SDS and proteinase K (0.8 mg/ml) for 15 min at 37° C., mixed with a 0.10 volume of loading buffer (70% glycerol, 0.1% bromphenol blue), and analyzed by electrophoresis in 1% agarose gels in TAE buffer (40 mM Tris acetate, pH 8.3, and 1 mM EDTA) at 5 V/cm for 3 h. The gels were dried on DEAE-81 paper (Whatman) and the yield of D-loops quantified using a Storm 840 PhosphorImager and ImageQuant 5.2 (GE Healthcare). The D-loop yield was expressed as a percentage of plasmid DNA carrying D-loops relative to the total plasmid DNA.
IC50 values were calculated using GraphPad Prism V5.0 software. The data were obtained from three independent repeats of experiments.
The inhibitory effect of the 70 selected compounds were tested using the D-loop assay, in which RAD52 promotes pairing between 32P-labeled ssDNA and homologous supercoiled plasmid pUC19 DNA (FIG. 1D); the product of the reaction, D-loops, were analyzed by electrophoresis in 1% agarose gels. […] Then, the effects of each of the 17 compounds on RAD52-dependent D-loop formation were measured in a concentration dependent manner.

Experiment [3] relates to UWB1.289 (BRCA1-) and UWB1.289 (+BRCA1) cells. The experiment is described as follows: Luminescent cell viability assay, BRCA1-deficient versus proficient cells. The format is cell-based, Human. The following applies: 9 days exposure. On the procedure:
(§1) BxPC3 cells were kept in RPMI 1640 (ATCC) media supplemented with 10% FBS (Gibco). Capan-1/BxPC3 Capan-1 cells were kept in IMDM (ATCC) media containing 20% FBS (GIBCO). […] cells were kept in 48.5% RPMI1640 (ATCC), 48.5% MEGM (Clonetics/Lonza, MEGM kit, CC-3150) and 3% FBS (GIBCO) respectively. Cells in log-phase were harvested and 100 μl cell suspensions were replated in a 96-well plate with a final density of 4000 cells/well. After overnight growth, cells were treated with indicated concentrations of compounds. Media containing the invariant concentration of compounds were refreshed every 3 days until cells were finally lysed by 30 μl/well of Promega CellTiter-Glo reagents and read on a Promega GloMax 96 reader on day 10 (9 days exposure).
(§2) BxPC3 cells were kept in RPMI 1640 (ATCC) media supplemented with 10% FBS (Gibco); Capan-1 cells were kept in IMDM (ATCC) media containing 20% FBS (GIBCO); UWB1.298 and UWB1.298 (BRCA1+) cells were kept in 48.5% RPMI1640 (ATCC), 48.5% MEGM (Clonetics/Lonza, MEGM kit, CC-3150) and 3% FBS (GIBCO) respectively. […] Media containing the invariant concentration of compounds were refreshed every 3 days until cells were finally lysed by 30 μl/well of Promega CellTiter-Glo reagents and read on a Promega GloMax 96 reader on day 10 (9 days exposure). […]

The subject of experiment [4] is MDA-MB-436 (BRCA1-) and MDA-MB-436 (BRCA1+) cells. The experiment is described as follows: Clonogenic survival assay. The format is cell-based, Human. Here is the method:
MDA-MB-436 cells were cultured in RPMI+10% FBS. BRCA-proficient and BRCA-deficient cells were plated on day 0 in triplicate at 5,000 cells/well. […] Cells were counted on day 4 on a hemocytometer, using Trypan Blue exclusion, and immediately were plated in a clonogenic assay at a density of 500 cells/well in a 6 well plate, in RPMI+10% FBS. After two weeks, the colonies were fixed/stained with 0.05% of 10 mg/ml ethidium bromide in 50% ethanol and visualized with Alphaimager gel imager (Alpha Innotech).
Likewise, the effects of RAD52 inhibitors on the growth of BRCA1-deficient (UWB1.289 BRCA1^−) and BRCA1-proficient (UWB1.289 BRCA^+) cells were tested. 7 out 14 tested RAD52 inhibitors preferentially suppress the growth of BRCA1-deficient cells. Importantly, these 7 compounds included the 5 compounds that inhibited the growth of BRCA2-deficient cells (FIGS. 3E-3H). The effects of the 14 RAD52 inhibitors were tested on the survival of another BRCA1-deficient cells, and MDA-MB-436 cells. […] BRCA1-deficiency in these cells is due to constitutive downregulation of this protein.

In experiment [5] the test system is Capan-1 (BRCA2-) and BxPC3 (BRCA2+) cells. The experiment is described as follows: Luminescent cell viability assay, BRCA2-deficient versus proficient cells. The experiment is classed as cell-based, Human. The note with it: 9 days exposure. On the procedure:
as §1, §2

Experiment [6] concerns BRCA1/2-deficient cell lines. The experiment is described as follows: Growth of BRCA1/2-deficient cell lines (summary over tested lines). The format is cell-based, Human. Here is the method: as §1
as §1, with “(Gibco);” for “(Gibco). Capan-1/BxPC3”, “(GIBCO);” for “(GIBCO).”, “exposure). Promega CellTiter-Glo protocol is available on the web: www dot promega dot com/resources/protocols/technical-bulletins/0/celltiter-glo-luminescent-cell-viability-assay-protocol/” for “exposure).”
MDA-MB-436 cells were cultured in RPMI+10% FBS. BRCA-proficient and BRCA-deficient cells were plated on day 0 in triplicate at 5,000 cells/well. […] Cells were counted on day 4 on a hemocytometer, using Trypan Blue exclusion, and immediately were plated in a clonogenic assay at a density of 500 cells/well in a 6 well plate, in RPMI+10% FBS. […]

What is called IC50 is the concentration needed to halve the response being measured.

For `CCN(CC)CCCN(Cc1cc2cc3c(cc2[nH]c1=O)OCO3)C(=S)NCCCN(C)C` [D-A13, 1-(3-(diethylamino)propyl)-3-(3-(dimethylamino)propyl)-1-((6-oxo-5,6-dihydro-[1,3]dioxolo[4,5-g]quinolin-7-yl)methyl)thiourea], the IC50 in experiment [1] is 5.2 µM; in experiment [2], 13.6 ± 0.64 µM.
Regarding `COc1ccc(-c2nc(C(=O)NCCCN3CCOCC3)cc3c2[nH]c2ccccc23)cc1OC` [D-A19, 1-(3,4-dimethoxyphenyl)-N-(3-morpholinopropyl)-9H-pyrido[3,4-b]indole-3-carboxamide], the half-maximal inhibitory concentration (IC50) worked out at 4.8 µM in experiment [1] and 7.2 ± 0.28 µM in experiment [2].
For the compound `Cc1c(C(=O)Nc2ccc(S(=O)(=O)N(C)C3CCN(C)CC3)cc2)oc2c(Cl)cccc12` [D-A21, 7-chloro-3-methyl-N-(4-(N-methyl-N-(1-methylpiperidin-4-yl)sulfamoyl)phenyl) benzofuran-2-carboxamide], the values for the IC50 in experiment [1] and in experiment [2] were 9.8 µM and 16.2 ± 0.42 µM, respectively.
As to `Cc1ccc(C(=O)c2oc3ccc(Cl)cc3c2NC(=O)CN2CCN(C)CC2)cc1` [D-C17, N-(5-chloro-2-(4-methylbenzoyl)benzofuran-3-yl)-2-(4-methylpiperazin-1-yl)acetamide], the values for the IC50 in experiment [1] and in experiment [2] were 6 µM and 17.6 ± 0.78 µM, respectively.
For `Cc1ccc(-c2nc(C(=O)NCCCN3CCOCC3)cc3c2[nH]c2ccccc23)cc1` [D-C19, N-(3-morpholinopropyl)-1-(p-tolyl)-9H-pyrid[3,4-b]indole-3-carboxamide], in that order: 2 µM and 4.3 ± 0.35 µM.
Turning to `CCN1CCN(CCCNC(=S)Nc2ccc3nc(N(C)CCN)cc(C)c3c2)CC1` [D-E05, 1-(2-((2-aminoethyl)(methyl)amino)-4-methylquinolin-6-yl)-3-(3-(4-ethylpiperazin-1-yl)propyl)thiourea], the results for the IC50 in experiment [1] and in experiment [2] were 1.7 µM and 11.3 ± 0.35 µM, respectively.
As to `CCCCN(CC)CCCNC(=S)Nc1ccc2nc(N3CCN(C)CC3)cc(C)c2c1` [D-G09, 1-(3-(butyl(ethyl)amino)propyl)-3-(4-methyl-2-(4-methylpiperazin-1-yl)quinolin-6-yl)thiourea], the “effect on growth of BRCA1-deficient UWB1.289 cells versus UWB1.289 (+BRCA1)” value in experiment [3] is listed as “showed an inhibitory effect”. Also, the figures for the IC50 in experiment [1] and in experiment [2] were 2 µM and 14.8 ± 2.47 µM, respectively. In addition, the “effect on survival of BRCA1-deficient MDA-MB-436 cells versus MDA-MB-436 (BRCA1+)” value in experiment [4] is listed as “showed an inhibitory effect”. Besides, the “effect on growth of BRCA2-deficient Capan-1 cells versus BxPC3” value in experiment [5] is listed as “showed an inhibitory effect”.
Regarding `CCCN(CCC)CCCNC(=S)Nc1ccc2nc(N3CCN(C)CC3)cc(C)c2c1` [D-G11, 1-(3-(dipropylamino)propyl)-3-(4-methyl-2-(4-methylpiperazin-1-yl)quinolin-6-yl)thiourea], in experiment [3], the “effect on growth of BRCA1-deficient UWB1.289 cells versus UWB1.289 (+BRCA1)” value is reported as “showed activity”. Further, the IC50 is 6 µM in experiment [1] and 8.9 ± 1.6 µM in experiment [2]. In addition, the “effect on growth of BRCA2-deficient Capan-1 cells versus BxPC3” value in experiment [5] is recorded as “showed activity”.
As for `Cc1cc(N2CCN(C)CC2)nc2ccc(NC(=S)NCCCN3CCN(C)CC3)cc12` [D-I01, 1-(4-methyl-2-(4-methylpiperazin-1-yl)quinolin-6-yl)-3-(3-(4-methylpiperazin-1-yl)propyl)thiourea], the IC50 was determined as 3.6 µM in experiment [1] and 15.4 ± 0.57 µM in experiment [2].
For `COc1ccc(OC)c(Nc2nc(NCCO)c3ccccc3n2)c1` [D-I05, 2-((2-((2,5-dimethoxyphenyl)amino)quinazolin-4-yl)amino)ethan-1-ol], the concentration for half-maximal inhibition (IC50) in experiment [1] came out at 4.3 µM; in experiment [2], 8.8 ± 0.42 µM. Moreover, in experiment [6], the “preferential inhibition of BRCA1/2-deficient cell lines (summary)” value was “preferentially inhibited at least two BRCA1/2-deficient cell lines”.
For `CN1CCN(CCCNC(=O)c2cc3c(-c4ccc(Cl)cc4)nn(C)c3s2)CC1` [D-I07, 3-(4-chlorophenyl)-1-methyl-N-(3-(4-methylpiperazin-1-yl)propyl)-1H-thieno[2,3-c]pyrazole-5-carboxamide], the concentration for half-maximal inhibition (IC50) was 2 µM in experiment [1] and 2.7 ± 0.35 µM in experiment [2].
As for `CCCCN(CC)CCNC(=O)c1cc2c(-c3ccc(Cl)cc3)nn(C)c2s1` [D-I09, N-(2-(butyl(ethyl)amino)ethyl)-3-(4-chlorophenyl)-1-methyl-1H-thieno[2,3-c]pyrazole-5-carboxamide], the IC50 in experiment [1] stood at 6.8 µM; in experiment [2], 10.6 ± 1.4 µM.
Take `Cn1nc(-c2ccc(Cl)cc2)c2cc(C(=O)NCCCN3CCCCCC3)sc21` [D-I11, N-(3-(azepan-1-yl)propyl)-3-(4-chlorophenyl)-1-methyl-1H-thieno[2,3-c]pyrazole-5-carboxamide]: the half-inhibitory concentration (IC50) in experiment [1] stood at 4.1 µM; in experiment [2] it was 6.7 ± 0.78 µM.
As for `Cn1nc(-c2ccc(Cl)cc2)c2cc(C(=O)NCCCN3CCCC3)sc21` [D-I19, 3-(4-chlorophenyl)-1-methyl-N-(3-(pyrrolidin-1-yl)propyl)-1H-thieno[2,3-c]pyrazole-5-carboxamide], the figures for the IC50 in experiment [1] and in experiment [2] were 3.5 µM and 4.1 ± 0.14 µM, respectively.
As for `COc1ccccc1Nc1nc(NCCCO)c2ccccc2n1` [D-K17, 3-((2-((2-methoxyphenyl)amino)quina-zolin-4-yl)amino)propan-1-ol], the half-maximal inhibitory concentration (IC50) stood at 2.9 µM in experiment [1] and 4.8 ± 0.85 µM in experiment [2]. Besides, the “preferential inhibition of BRCA1/2-deficient cell lines (summary)” value in experiment [6] was “preferentially inhibited at least two BRCA1/2-deficient cell lines”.

These data come from patent publication US10738061B2, “Inhibitors of RAD52 recombination protein and methods using same” (Drexel University, priority 2015, dated 2020).
